Tested on: Splenocyte
Test: Immunosuppressive activity in BALB/c mouse splenocytes assessed as reduction in anti-mouse CD3/CD28-induced cell proliferation after 72 hrs by flow cytometric analysis
Type: functional, cell-based

SMILES: COC(=O)[C@]12C[C@H](C(C)(C)O)C(C)(C)[C@H]1C[C@H]1C[C@@](CC=C(C)C)(C2=O)C(O)=C(C(=O)C(C)C)C1(C)C
- IC50: 8.3 µM
